In the METLIN SMRT retention time set (Domingo-Almenara et al. 2019):

Assay: gradient 5% acetonitrile 3 min, to 50% in 2 min, to 85% in 15 min, held 3 min, 100 µL/min
Conditions: column: Zorbax Extend-C18 2.1 x 50 mm; eluents: water / acetonitrile, 0.1% formic acid
Outline: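 Retention time was recorded from adduct peaks, which were picked computationally and each inspected manually. Pure standards ran in mixtures of ~100 molecules on HPLC coupled to a quadrupole time-of-flight mass spectrometer, in positive and negative ionization mode, through a Zorbax Extend-C18 column (2.1 × 50 mm, 1.8 μm) at 100 μL/min. Eluents were water and acetonitrile, each with 0.1% formic acid.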

RP-LC retention time	SMILES
963 s	O=C(C1CCCCC1)N1CC(c2nc(-c3ccccc3)no2)C2(CCOCC2)C1 (stereo not given)
591 s	CCOc1ccc2ncc(C(=O)c3ccccc3)c(N3CCN(CC)CC3)c2c1
783 s	COc1ccc(OCC(=O)Nc2nc(C)cc(C)c2-c2noc(C)n2)cc1
1160 s	CCc1sc(NC(=O)c2sc(C)nc2C)nc1-c1ccc(Br)cc1
995 s	Cc1ccc(NC(=O)N2CCc3nc(-c4ccccc4)ncc3C2)cc1C
954 s	O=C(CSc1ncnc2c1cnn2-c1ccc(Cl)cc1)NCc1ccco1
1090 s	c1cnn(-c2ccc(-c3noc(C4CCC4)n3)cn2)c1
649 s	O=C1CCc2cc(NC(=O)c3cncc(Br)c3)ccc2N1
841 s	COc1ccc2[nH]cc(CCN3CC(C(=O)Nc4ccc5c(c4)CCC5)CC3=O)c2c1 (stereo not given)
700 s	CCCNC(=O)C1CCCN(c2ccc(SCC(=O)Nc3cc(F)ccc3C)nn2)C1 (stereo not given)
964 s	COC(=O)c1cnn(-c2cccc(C)c2)c1-n1cccc1
855 s	COc1ccc(C)cc1NC(=O)NC1CCN(c2ccc(F)cc2)C1=O (stereo not given)
951 s	Cc1nc(-c2ccc3c(c2)CCN3C(=O)c2ccc3c(c2)OCO3)cs1
925 s	O=C(Nc1cccc(C(=O)NCCC2=CCCCC2)c1)C1=CSCCO1
1060 s	COc1ccc(N2CCN(c3cc(SCC(=O)Nc4cc(C)cc(C)c4)ncn3)CC2)cc1
1080 s	Cc1ccc(-c2ncc3c(=O)n(CC(=O)NC4CCCCCC4)c(=O)n(C)c3n2)cc1
938 s	O=C(NC1CCCCC1)c1nc(-c2cn(-c3ccc(F)cc3)nn2)no1

RP-LC retention time	SMILES
946 s	Cc1ccc(Cn2nc(C(=O)N3CCCc4cc(C)ccc43)ccc2=O)cc1
846 s	CCOC(=O)C1=C(C)NC2=C(C(=O)C(C(=O)OC)C(C)C2)C1c1cccc(OC)c1 (stereo not given)
607 s	CC(C)CNC(=O)N1CC(n2cc(C(=O)N3CCOCC3)nn2)C1
604 s	COC[C@@H]1CN(Cc2cn[nH]c2-c2ccccc2)C[C@H]1c1ccccn1
1180 s	CCc1nc(-c2csc(S(=O)(=O)N3CCCC(C(=O)Nc4ccc(C)c(Cl)c4)C3)c2)no1 (stereo not given)
616 s	Cc1cc(N2CCN(C(=O)CCc3ccccc3)CC2)nc2nncn12
998 s	CC(C)(C)c1noc(-c2ccnc(-n3cnc(C(=O)N4CCCCCC4)c3)c2)n1
550 s	Cc1ccc(CN2C[C@@H](CO)[C@H](NC(=O)c3cnccn3)C2)o1
656 s	COc1ccc(CNC(=O)C2CCN(c3cc(N4CCSCC4)ncn3)CC2)cc1
833 s	O=C(c1cn(-c2cc(-c3nc(C4CC4)no3)ccn2)cn1)N1CCSCC1
658 s	COc1ccc(NC(=O)Cn2cnc3cc4c(cc32)OCCO4)cc1Cl
601 s	COc1ccc(NC(=O)c2cnc(N3CCN(C(C)=O)CC3)nc2N)cc1
848 s	COc1ccc(-n2ccnc(NC(=O)Nc3ccc(F)cc3)c2=O)cc1OC
664 s	Cc1ccccc1N1CCn2c1nc1c2c(=O)n(CC(=O)O)c(=O)n1C
1000 s	COc1ccc(CNC(=O)N2c3ccccc3CC2c2nc(C(C)C)no2)cc1 (stereo not given)
854 s	CCOC(=O)C1CCCN(C(=O)c2csc3nc(-c4ccc(F)cc4)cn23)C1 (stereo not given)

Continued, molecule first:

SMILES	RP-LC retention time
O=C1CC(c2noc(-c3cccc(OC(F)(F)F)c3)n2)CN1c1ccc(Cl)cc1 (stereo not given)	1210 s
O=C(CN1C(=O)C2CCCCN2c2ccc(S(=O)(=O)N3CCCC3)cc21)NCC1CCCO1 (stereo not given)	771 s
CCN1c2ccc(C)cc2C(=O)NC12CCN(C(=O)Cc1ccccc1)CC2	820 s
CCOc1ccc(CNC(=O)CN2C(=O)CSc3cccn3-c3ccccc32)cc1	914 s
CS(=O)(=O)Nc1ccc(C2(C(=O)NCc3ccccc3F)CCCCC2)cc1	904 s
CC(C)NC(=O)N1CCCC(c2cccc(C(=O)NC(C)c3ccc(F)cc3)c2)C1 (stereo not given)	907 s
O=C(CN1C(=O)c2ccccc2C1=O)Nc1cccc(-c2cn3c(n2)SCC3)c1	581 s
COc1ccc(S(=O)(=O)Nc2nc(C(=O)Nc3cccc(Cl)c3)cs2)cc1	844 s
Cn1nc(-c2nnc(-c3ccccc3F)o2)c2c1CCN(S(=O)(=O)c1ccc(F)cc1F)C2	922 s
CCc1ccc(N2CC(c3noc(-c4ccc(OC)cc4OC)n3)CC2=O)cc1 (stereo not given)	1040 s
Cc1nc(-c2cc(S(=O)(=O)N3CCN(c4ccccc4F)CC3)c(C)s2)cs1	1210 s
COc1cc(NS(=O)(=O)c2cn(C(C)C)c3ncccc23)cc(OC)c1	876 s
CN(C)S(=O)(=O)c1cc2c(cc1N1CCN(c3ccccn3)CC1)Oc1ccccc1NC2=O	639 s
CC1=NS(=O)(=O)N(C)C=C1C(=O)OCc1ccc(C)cc1	975 s
CCN1CCN(c2ncc(N3CCC(C(=O)NCC(C)C)CC3)cn2)CC1	582 s
CN1C(=O)NC2(CCN(S(=O)(=O)c3cccs3)CC2)C1=O	640 s

SMILES	RP-LC retention time
O=C([C@@H]1C[C@H](Oc2ccccc2)CN1C(=O)c1n[nH]c(=O)c2ccccc12)N1CCCC1	703 s
Cc1ccc(C)c(N2CCN(C(=O)Cn3nc(C(=O)N4CCCCC4)c4ccccc43)CC2)c1	1100 s
Cn1nc(C(=O)N2CCCCC2)c2c1CCN(C(=O)Nc1ccc3c(c1)OCO3)C2	717 s
CCOc1cc(=O)n2c(c1C(=O)NCCCN1CCCc3ccccc31)CCCCC2	733 s
CCc1ccc(S(=O)(=O)N2CCCC2c2nc(-c3cccc(Cl)c3)no2)cc1 (stereo not given)	1300 s
Cc1ccc(-n2nc3c(=O)n(CCCC(=O)NCCCN4CCCC4=O)nc(C)c3c2C)cc1	683 s
Cc1ccc(CNC(=O)NCCC2CCN(S(=O)(=O)c3ccccc3)CC2)cc1	877 s
Cc1ccc(-c2noc(-c3nc(Cc4ccc(F)cc4)no3)n2)cc1	1180 s
Cc1ccccc1-c1noc(Cn2c(=O)n(Cc3ccccc3Cl)c(=O)c3sccc32)n1	1200 s
CCn1cc(CCN2CCN(S(=O)(=O)c3ccc(C)c(Cl)c3)CC2)c2cccnc21	708 s
COc1ccc(-c2noc(CS(=O)(=O)c3ccc(C)cc3)n2)cc1OC	990 s
CCn1c(=O)c2ccccc2n(Cc2nc(-c3ccc(OC(C)C)cc3)no2)c1=O	1050 s
Cc1ccc(-c2nnc(-c3nn(C)c4c3CN(S(=O)(=O)c3ccccc3F)CC4)o2)cc1	970 s
Cc1sc(NC(=O)c2ccccc2F)nc1-c1ccc2c(c1)NC(=O)C(C)O2 (stereo not given)	899 s
Nc1ncnc2c1nc(Cl)n2C1OC2COP(=O)(O)OC2C1O (stereo not given)	523 s
NS(=O)(=O)c1cccnc1Nc1cccc(C(F)(F)F)c1	932 s
